From patent US11014911B2, “CDK2 inhibitors” (Pfizer Inc., priority 2019, dated 2021) come the findings set out here.

The target in the assay is CDK2/Cyclin E1 full length (Homo sapiens (Human), UniProt P24941). In words: CDK2/Cyclin E1 full length mobility shift assay. Type of assay: biochemical.

With `CCCNC(=O)O[C@@H]1CC[C@H](c2cc(NC(=O)Cc3ccc(C)cc3S(C)(=O)=O)n[nH]2)C1` [Example 207, (1R,3S)-3-[3-({[4-methyl-2-(methylsulfonyl)phenyl]acetyl}amino)-1H-pyrazol-5-yl]cyclopentyl propylcarbamate], the Ki is 0.66 nM.

Turning to `CCCNC(=O)O[C@@H]1CC[C@H](c2cc(NC(=O)Cc3cc(C)ncc3S(C)(=O)=O)n[nH]2)C1` [Example 208, (1R,3S)-3-[3-({[2-methyl-5-(methylsulfonyl)pyridin-4-yl]acetyl}amino)-1H-pyrazol-5-yl]cyclopentyl propylcarbamate], the Ki came to 3.18 nM.

Regarding `CCCNC(=O)O[C@@H]1CC[C@H](c2cc(NC(=O)Cc3ccccc3S(=O)(=O)NC)n[nH]2)C1` [Example 209, (1R,3S)-3-[3-({[2-(methylsulfamoyl)-phenyl]acetyl}amino)-1H-pyrazol-5-yl]cyclopentyl propylcarbamate], the Ki was 1.21 nM.

For `CCCNC(=O)O[C@@H]1CC[C@H](c2cc(NC(=O)Cc3ccccc3S(=O)(=O)C3CC3)n[nH]2)C1` [Example 210, (1R,3S)-3-[3-({[2-(cyclopropylsulfonyl)-phenyl]acetyl}amino)-1H-pyrazol-5-yl]cyclopentyl propylcarbamate], the Ki is 3.8 nM.

For `CCCNC(=O)O[C@@H]1CC[C@H](c2cc(NC(=O)Cc3ccccc3S(=O)(=O)C(C)C)n[nH]2)C1` [Example 211, (1R,3S)-3-[3-({[2-(propan-2-ylsulfonyl)phenyl]acetyl}amino)-1H-pyrazol-5-yl]cyclopentyl propylcarbamate], the Ki was found to be 4.87 nM.

For the compound `CCCNC(=O)O[C@@H]1CC[C@H](c2cc(NC(=O)Cc3ccc(COC)cc3S(C)(=O)=O)[nH]n2)C1` [Example 215, (1R,3S)-3-[5-({[4-(methoxymethyl)-2-(methylsulfonyl)phenyl]acetyl}amino)-1H-pyrazol-3-yl]cyclopentyl propylcarbamate], the Ki came to 1.26 nM.

Regarding `Cn1ncc(CC(=O)Nc2cc([C@H]3CC[C@@H](OC(=O)NCCC(F)(F)F)C3)[nH]n2)n1` [Example 217, (1R,3S)-3-(3-{[(2-methyl-2H-1,2,3-triazol-4-yl)acetyl]amino}-1H-pyrazol-5-yl)cyclopentyl (3,3,3-trifluoropropyl)carbamate], the Ki is 2.22 nM.

Take `O=C(Cc1nccs1)Nc1cc([C@H]2CC[C@@H](OC(=O)NCCC(F)(F)F)C2)[nH]n1` [Example 219, (1R,3S)-3-{3-[(1,3-thiazol-2-ylacetyl)amino]-1H-pyrazol-5-yl}cyclopentyl (3,3,3-trifluoropropyl)carbamate]: the Ki came out at 3.81 nM.

Consider `Cc1cnc(CC(=O)Nc2cc([C@H]3CC[C@@H](OC(=O)NCCC(F)(F)F)C3)[nH]n2)cn1` [Example 220, (1R,3S)-3-(3-{[(5-methylpyrazin-2-yl)acetyl]amino}-1H-pyrazol-5-yl)cyclopentyl (3,3,3-trifluoropropyl)carbamate], for which the Ki worked out at 3.26 nM.

With `Cc1cnc(CC(=O)Nc2cc([C@H]3CC[C@@H](OC(=O)NCCC(F)(F)F)C3)[nH]n2)s1` [Example 221, (1R,3S)-3-(3-{[(5-methyl-1,3-thiazol-2-yl)acetyl]amino}-1H-pyrazol-5-yl)cyclopentyl (3,3,3-trifluoropropyl)carbamate], the Ki stood at 1.73 nM.

On to `COc1cnc(CC(=O)Nc2cc([C@H]3CC[C@@H](OC(=O)NCCC(F)(F)F)C3)[nH]n2)cn1` [Example 222, (1R,3S)-3-(3-{[(5-methoxypyrazin-2-yl)acetyl]amino}-1H-pyrazol-5-yl)cyclopentyl (3,3,3-trifluoropropyl)carbamate], for which the Ki worked out at 2.93 nM.

For `COc1cnc(CC(=O)Nc2cc([C@H]3CC[C@@H](OC(=O)NCCC(F)(F)F)C3)[nH]n2)s1` [Example 223, (1R,3S)-3-(3-{[(5-methoxy-1,3-thiazol-2-yl)acetyl]amino}-1H-pyrazol-5-yl)cyclopentyl (3,3,3-trifluoropropyl)carbamate], the Ki was found to be 2.33 nM.
